Experimental data reported in patent US4341766A, “Deactivation of antibiotic-hydrolyzing enzymes” (priority 1980, dated 1982).
Read-outs that look alike come from different tables or passages of the source.

Assays:
[1] = target: T1, E. coli RTEM β-lactamase (Escherichia coli, UniProt P62593); assay: rate constant (kcat) of the corresponding N-acyl derivative of 6-aminopenicillanic acid as β-lactamase substrate; assay type: biochemical
T1 construct: mature periplasmic enzyme
Source text: We believe the acyl-enzyme intermediates either deacylate (resulting in the undesirable restoration of the lactamase) or fragment (resulting in the desirable deactivation of the lactamase). […] This can be achieved by employing an N-acyl derivative of 6-aminopenicillanic acid sulfone in which the corresponding N-acyl derivative of 6-aminopenicillanic acid is a very poor substrate for β-lactamase. Since the rate constant (kcat) of an N-acyl derivative of 6-aminopenicillanic acid is a measure of its ability to act as a substrate, this constant provides the basis for defining the class of sulfones used in the invention.
Quinacillin sulfone's effectiveness is shown both by the low inactivation time, and by the low number of turnovers before inactivation (the low number of molecules of quinacillin sulfone needed to inactivate one β-lactamase molecule).

[2] = target: T1, E. coli RTEM β-lactamase; assay: in vitro treatment of E. coli RTEM β-lactamase (deactivation); assay type: biochemical; conditions: for turnovers before deactivation: number of molecules of compound needed to inactivate one β-lactamase molecule; for t1/2 for deactivation: in vitro, E. coli RTEM β-lactamase; for comparative efficacy as β-lactamase deactivating agent: in words, comparison of the four compounds of Table I

T1 sequence (P62593 24-286 limits assumed): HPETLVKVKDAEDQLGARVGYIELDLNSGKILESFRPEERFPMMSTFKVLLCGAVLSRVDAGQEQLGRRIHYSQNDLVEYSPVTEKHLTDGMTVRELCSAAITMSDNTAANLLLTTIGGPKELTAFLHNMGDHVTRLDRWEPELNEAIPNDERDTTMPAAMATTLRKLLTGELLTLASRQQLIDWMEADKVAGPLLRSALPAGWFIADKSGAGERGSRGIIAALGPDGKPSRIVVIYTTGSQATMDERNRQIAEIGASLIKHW

| Structure (SMILES) | kcat of corresponding N-acyl derivative of 6-aminopenicillanic acid [1] | turnovers before deactivation [2] | t1/2 for deactivation [2] | comparative efficacy as β-lactamase deactivating agent [2] | kcat of corresponding N-acyl derivative of 6-aminopenicillanic acid ([1]; value belongs to the parent (non-sulfone) penicillin corresponding to the listed sulfone, substrate capability for β-lactamase) |
| --- | --- | --- | --- | --- | --- |
| CC1(C)[C@H](C(=O)O)N2C(=O)C[C@H]2S1(=O)=O [CP-45, 899, 6-des-aminopenicillanic acid sulfone, reference compound] | 40 s⁻¹ | 4,500 | – | – | – |
| Cc1onc(-c2ccccc2Cl)c1C(=O)N[C@@H]1C(=O)N2[C@@H](C(=O)O)C(C)(C)S(=O)(=O)[C@H]12 [cloxacillin sulfone] | – | 17,000 | 1.5 min | effective deactivating agents, though less effective than quinacillin sulfone | – |
| CC1(C)S[C@@H]2[C@H](NC(=O)c3nc4ccccc4nc3C(=O)O)C(=O)N2[C@H]1C(=O)O [quinacillin] | – | – | – | – | lowest kcat value |
| CC1(C)[C@H](C(=O)O)N2C(=O)[C@@H](NC(=O)c3nc4ccccc4nc3C(=O)O)[C@H]2S1(=O)=O [quinacillin sulfone] | – | 400 | ~ 1 min | most effective of the four compounds listed | – |
| COc1cccc(OC)c1C(=O)N[C@@H]1C(=O)N2[C@@H](C(=O)O)C(C)(C)S(=O)(=O)[C@H]12 [methicillin sulfone] | – | 22,500 | ~ 1 min | effective deactivating agents, though less effective than quinacillin sulfone | – |
